The source of these data is patent publication US6451804B1, “Heteroalkylamino-substituted bicyclic nitrogen heterocycles” (Syntex (U.S.A.) LLC, priority 1999, dated 2002).

The IC50 is the concentration at which inhibition is half-maximal. The term melting point denotes the temperature, or range, at which the solid turns liquid.

In one series the target is T1, p38 MAP kinase (Homo sapiens, UniProt Q16539).
T1 construct: made in house; host or cells: E. coli (co-expressed with SEK-1 and MEKK)
Kind of series: In vitro p38 MAP kinase inhibition assay (transfer of γ-phosphate from γ-33P-ATP to Myelin Basic Protein). Type of series: biochemical. Conditions: phosphorylated recombinant p38 MAP kinase, MBP substrate. On the procedure: This example illustrates a p38 (MAP) kinase in vitro assay useful for evaluating the compounds of the present invention.
The p38 MAP kinase inhibitory activity of compounds of this invention in vitro was determined by measuring the transfer of the γ-phosphate from γ-^33P-ATP by p38 kinase to Myelin Basic Protein (MBP), using a minor modification of the method described in Ahn, et al., J. Biol. Chem. 266:4220-4227 (1991).
The phosphorylated form of the recombinant p38 MAP kinase was co-expressed with SEK-1 and MEKK in E. Coli (see, Khokhlatchev, et al., J. Biol. Chem. 272:11057-11062 (1997)) and then purified by affinity chromatography using a Nickel column.
The phosphorylated p38 MAP kinase was diluted in kinase buffer (20 mM 3-(N-morpholino)propanesulfonic acid, pH 7.2, 25 mM β-glycerol phosphate, 5 mM ethylene glycol-bis(beta-aminoethyl ether)-N,N,N′,N′-tetraacetic acid, 1 mM sodium ortho-vanadate, 1 mM dithiothreitol, 40 mM magnesium chloride). Test compound dissolved in DMSO or only DMSO (control) was added and the samples were incubated for 10 minutes at 30° C. The kinase reaction was initiated by the addition of a substrate cocktail containing MBP and γ-^33P-ATP. After incubating for an additional 20 minutes at […], the reaction was terminated by adding 0.75% phosphoric acid. The phosphorylated MBP was then separated from the residual γ-^33P-ATP using a phosphocellulose membrane (Millipore, Bedfrod, Mass.) and quantitated using a scintillation counter (Packard, Meriden, Conn.).

Some results are limits rather than exact numbers.

T1 sequence (Q16539 whole entry): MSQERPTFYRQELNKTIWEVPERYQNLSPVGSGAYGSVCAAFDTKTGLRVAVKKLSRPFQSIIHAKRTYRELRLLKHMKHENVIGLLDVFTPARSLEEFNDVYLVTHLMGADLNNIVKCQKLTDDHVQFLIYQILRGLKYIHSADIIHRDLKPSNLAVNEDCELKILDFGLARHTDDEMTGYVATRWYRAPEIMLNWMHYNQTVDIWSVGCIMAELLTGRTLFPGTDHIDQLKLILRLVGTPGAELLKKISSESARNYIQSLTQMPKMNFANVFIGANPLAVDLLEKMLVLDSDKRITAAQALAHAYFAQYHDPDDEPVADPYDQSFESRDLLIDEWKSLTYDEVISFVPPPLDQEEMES

`Cc1ccccc1N1Cc2cnc(NCC(C)(C)CN)nc2N(C)C1=O` [Compound 3-3]: the IC50 at p38 MAP kinase is less than 10 µM.
Turning to `CN1C(=O)N(c2ccccc2Cl)Cc2cnc(NCC(C)(C)CN)nc21` [Compound 3-1], the melting point is 183 to 235 °C. Further, the concentration for half-maximal inhibition (IC50) on p38 MAP kinase was less than 10 µM.
The molecule `O=C1N(c2ccccc2Cl)Cc2cnc(N[C@H]3CC[C@H](O)CC3)nc2N1CC(F)(F)F` [Compound 3-60, 3-(2-chlorophenyl)-7-(trans-4-hydroxycyclohexylamino)-1-(2,2,2-trifluoroethyl)-3,4-dihydropyrimido[4,5-d]pyrimidin-2(1H)-one] came in with a melting point of 130 to 133.5 °C. Also, at p38 MAP kinase, the concentration for half-maximal inhibition (IC50) is less than 10 µM.
With `Cc1ccccc1N1Cc2cnc(NC(C)(C)CO)nc2N(C)C1=O` [Compound 3-12], the concentration for half-maximal inhibition (IC50) at p38 MAP kinase was less than 10 µM.
`CCOC(=O)N1CCC(Nc2ncc3c(n2)NC(=O)N(c2ccccc2Cl)C3)CC1` [Compound 2-28, 3-(2-chlorophenyl)-7-(1-ethoxycarbonylpiperidin-4-ylamino)-3,4-dihydropyrimido[4,5-d]pyrimidin-2(1H)-one]: the IC50 on p38 MAP kinase was less than 10 µM.
The molecule `N#CCN1C(=O)N(c2ccccc2Cl)Cc2cnc(N[C@H]3CC[C@H](O)CC3)nc21` [Compound 3-55, 3-(2-chlorophenyl)-7-(trans-4-hydroxycyclohexylamino)-1-cyanomethyl-3,4-dihydropyrimido[4,5-d]-pyrimidin-2(1H)-one] had a melting point of 130.8 °C.
